Assay: Solubility in water
Format: physicochemical

## CC(C)(C)CC(C)(C)c1cc(Cc2cc(C(C)(C)CC(C)(C)C)cc(-n3nc4ccccc4n3)c2O)c(O)c(-n2nc3ccccc3n2)c1 [2,2′-methylene bis[6-(2H-benzotriazol-2-yl)-4-(1,1,3,3-tetramethylbutyl)phenol]]
  solubility in water: ng/L range

— patent US20250143990A1, “SKIN MICROBIOME FRIENDLY SUNSCREENS” (BASF SE, priority 2022, published 2025)
